According to US9157062B2, “Compositions and methods for promoting the generation of PDX1+ pancreatic cells” (President and Fellows of Harvard College, priority 2008, dated 2015):
Where a name gives a salt, the structure may show the parent alone. Read-outs that look alike come from different tables or passages of the source.

T1: PKCμ (Homo sapiens, UniProt Q15139)
T1 sequence (Q15139 1-912): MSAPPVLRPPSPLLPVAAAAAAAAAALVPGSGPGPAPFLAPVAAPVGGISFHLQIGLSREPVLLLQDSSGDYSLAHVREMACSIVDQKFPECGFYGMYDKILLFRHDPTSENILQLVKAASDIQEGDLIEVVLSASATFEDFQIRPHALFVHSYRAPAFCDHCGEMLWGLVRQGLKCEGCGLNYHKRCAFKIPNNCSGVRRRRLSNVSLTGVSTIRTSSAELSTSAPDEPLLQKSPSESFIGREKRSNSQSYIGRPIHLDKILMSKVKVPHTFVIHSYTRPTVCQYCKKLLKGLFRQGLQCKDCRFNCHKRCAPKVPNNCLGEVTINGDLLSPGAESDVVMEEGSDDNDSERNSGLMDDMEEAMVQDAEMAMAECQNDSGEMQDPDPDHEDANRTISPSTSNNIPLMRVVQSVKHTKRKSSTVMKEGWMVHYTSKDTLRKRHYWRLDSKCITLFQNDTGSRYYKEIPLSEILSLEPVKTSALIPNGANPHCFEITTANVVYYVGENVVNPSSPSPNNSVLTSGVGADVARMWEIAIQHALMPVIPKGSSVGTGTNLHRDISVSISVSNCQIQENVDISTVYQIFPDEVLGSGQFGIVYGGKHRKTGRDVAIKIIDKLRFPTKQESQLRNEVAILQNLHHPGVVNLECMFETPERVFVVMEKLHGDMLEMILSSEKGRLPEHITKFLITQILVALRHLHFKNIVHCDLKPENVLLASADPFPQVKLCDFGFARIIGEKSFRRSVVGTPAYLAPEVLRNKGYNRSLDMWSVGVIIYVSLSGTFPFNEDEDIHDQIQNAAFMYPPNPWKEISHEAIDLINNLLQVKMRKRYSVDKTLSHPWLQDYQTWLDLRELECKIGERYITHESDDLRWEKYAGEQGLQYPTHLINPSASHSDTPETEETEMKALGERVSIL

B1: FGF10: mitogen (fibroblast growth factor) reported to be involved in pancreatic development, from R&D systems (protein, UniProt O15520 38-208, looked up)
Fibroblast growth factor 10: QALGQDMVSPEATNSSSSSFSSPSSAGRHVRSYNHLQGDVRWRKLFSFTKYFLKIEKNGKVSGTKKENCPYSILEITSVEIGVVAVKAINSNYYLAMNKKGKLYGSKEFNNDCKLKERIEENGYNTYASFNWQHNGRQMYVALNGKGAPRRGQKTRRKNTSAHFLPMVVHS

Key:
[1] = test system: HUES8-derived population (Pdx1+ cells); test: Pdx1 antibody staining of treated HUES8-derived population; type: cell-based, human; settings: for percentage of Pdx1+ cells, PKC antagonists in the presence of ILV: 300 nM ILV plus 1 μM BISI or 10 μM Gö 6983, 4 days; for percentage of Pdx1+ cells, PKC agonists in the absence of ILV: HUES8-derived definitive endoderm population, 500 nM TPB or 14 nM PMA
Protocol: (§1) To generate a starting population, HUES cells were cultured on MEF feeder cells until 80-90% confluent, then treated with 25 ng/ml Wnt3a (R&D systems)+100 ng/ml Activin A (R&D systems) in advanced RPMI (A-RPMI, Invitrogen) supplemented with 1×L-Glu and 1×PS for 1 day, and then 100 ng/ml Activin A in A-RPMI supplemented with 1×L-Glu, 1×PS and 0.2% FBS (Invitrogen). Two days later, the media was changed to 50 ng/ml FGF10 (R&D systems)+0.25 μM KAAD-CYC (Calbiochem) in A-RPMI supplemented with 1×L-Glu, 1×PS and 2% FBS and maintained for additional 2 days. Cells were then transferred to 50 ng/ml FGF10+0.25 μM KAAD-CYC+2 μM RA (Sigma) in DMEM supplemented with 1×L-Glu, 1×PS, 1×B27 (Invitrogen) and cultured for an additional 4 days. ILV was obtained from Axxora, KAAD-CYC, TPB, PMA, BISI, Gö 6983, U0126 and PD98059 were obtained from Calbiochem and RA were obtained from Sigma.
(§2) Cells were fixed with 10% formalin solution (Sigma) for 20 min at room temperature. Immunostaining was carried out with standard protocols. The following primary antibodies were used: goat anti-Pdx1 (1:500; R&D system); rabbit anti-FOXA2 (1:500; Upstate); rabbit anti-HNF6 (1:200; Santa Cruz Biotech); guinea pig anti-insulin (1:1000; Dako); rabbit anti-c-peptide (1:500; Linco); rabbit anti-amylase (1:200, Sigma); goat anti-HNF1β (1:100, Santa Cruz Biotech); and biotinylated DBA (1:400; Vector Lab). Alexa-488-, Alexa-555, and Alexa-647-conjugated donkey antibodies against mouse, rabbit, guinea pig and goat, and Pacific Blue conjugate-streptavidin (Invitrogen) were used at 1:300 dilution.
To determine whether PKC signaling is being activated in HUES-derived cells, HUES8-derived definitive endoderm population was treated with two PKC agonists, TPB ((2S,5S)-(E,E)-8-(5-(4-(trifluoromethyl)phenyl)-2,4-pentadienoylamino)benzolactam) and PMA (phorbol-12-myristate-13-acetate), in the absence of ILV. […] Furthermore, HUES8-derived population was treated with two PKC antagonists, BISI (Bisindolylmaleimide I) and Gö 6983, in the presence of ILV.
Experiments were performed to monitor downstream signaling by PKC. Since ERK signaling has been reported to be regulated by PKC (Ueda et al., 1996), the activity of ERK signaling was examined with Western blotting to detect the phosphorylation of ERK1/2 at Thr-202/Tyr-204.

[2] = test system: HUES9-derived population (Pdx1+ cells); test: High throughput screen for compounds increasing Pdx1+ cells; type: cell-based, human; settings: HUES9-derived cells, 10 μM, 1 μM and 0.1 μM, four days
Protocol: as §1
For a high throughput screen, the starting material was hESCs (HUES9 cells) that were induced to pancreatic lineage using a slightly modified version of previously published protocols (D'Amour et al., 2006; Jiang et al., 2007), as described in Example 1. After 9 days of stepwise differentiation, a heterogeneous population of cells was generated containing cells that stained strongly, weakly or not at all with a Pdx1 antibody. Any cell that stained with the Pdx1 staining antibody was counted as Pdx1^+ cells regardless of staining intensity. Together, the Pdx1^+ cells comprises 5.1±1.8% of the total cell number.
To carry out the screen, the cells were trypsinized and plated on 804G-coated 384-well plates at 6000 cells/well using chemically defined media (DMEM supplemented with 2 mM L-Glu, 1×PS, 1×B27). After overnight incubation, compounds were screened by adding them to provide a final concentration of 10 μM, 1 μM and 0.1 μM. Four days later, the cells were stained with Pdx1 antibody and the plates were analyzed with Opera high content screening system (PerkinElmer).
The wells in which the percentage of Pdx1^+ cells is higher than present at day 1 and higher than day 5 treated with DMSO were selected as primary hits. Compounds that increase both the number and percentage of Pdx1^+ cells were picked as primary hits. Eleven compounds produced hits. (FIG. 7, Table I in FIG. 9 and formulas in FIG. 10). These eleven compounds were (−)-Indolactam V (FIG. 1c and Compound I in Table 1) boldine (Compound II), rotenone (Compound III), ethopropazine hydrochloride (Compound IV), cedrelone (Compound V), prieurianin (Compound VI), strophanthidin (Compound VII), trimeprazine tartrate (Compound VIII), terconazole (Compound IX), dimethisoquin hydrochloride (Compound X), harmine hydrochloride (Compound XI).
as §2

[3] = target: T1, PKCμ; settings: Gschwendt et al., 1996; cited from earlier work

| Molecule | primary hits (increase both the number and percentage of Pdx1+ cells) [2] | also measured |
| --- | --- | --- |
| CN(C)CCCn1cc(C2=C(c3c[nH]c4ccccc34)C(=O)NC2=O)c2ccccc21 [BISI, Bisindolylmaleimide I] |  | percentage of Pdx1+ cells, PKC antagonists in the presence of ILV ([1]; HUES8-derived population): 0.6±0.1% |
| COc1cc2c(cc1O)C[C@H]1c3c(cc(O)c(OC)c3-2)CCN1C [Compound II, boldine] | hits |  |
| C=C(C)[C@H]1Cc2c(ccc3c2O[C@@H]2COc4cc(OC)c(OC)cc4[C@@H]2C3=O)O1 [Compound III, rotenone] | hits |  |
| CCN(CC)C(C)CN1c2ccccc2Sc2ccccc21 (stereo not drawn) [Compound IV, ethopropazine hydrochloride] | hits |  |
| CC(C)N1CCN(c2ccc(OCC3COC(Cn4cncn4)(c4ccc(Cl)cc4Cl)O3)cc2)CC1 (stereo not drawn) [Compound IX, terconazole] | hits |  |
| N#CC(=C(/N)Sc1ccccc1N)/C(C#N)=C(\N)Sc1ccccc1N [Compound U0126] |  | percentage of Pdx1+ cells, MEK/ERK inhibitors together with ILV [1]: 0.3±0.2% |
| CC1(C)C(=O)C=C[C@@]2(C)C1=C(O)C(=O)[C@]1(C)[C@@H]2CC[C@@]2(C)[C@H](c3ccoc3)C[C@H]3O[C@]321 [Compound V, cedrelone] | hits |  |
| C=C1[C@@H]([C@@]2(C)[C@@H](OC(C)=O)CC(=O)O[C@](C)(COC(C)=O)[C@@H]2C(=O)OC)[C@@H](OC=O)[C@H](OC(=O)[C@H](O)[C@H](C)CC)[C@@]2(C)[C@H](c3ccoc3)CC(=O)[C@]12O [Compound VI, prieurianin] | hits |  |
| C[C@]12CC[C@H]3[C@@H](CC[C@]4(O)C[C@@H](O)CC[C@]34C=O)[C@@]1(O)CC[C@@H]2C1=CC(=O)OC1 [Compound VII, strophanthidin] | hits |  |
| CCCCc1cc2ccccc2c(OCCN(C)C)n1 [Compound X, dimethisoquin hydrochloride] | hits |  |
| COc1ccc2c(c1)[nH]c1c(C)nccc12.Cl [Compound XI, harmine hydrochloride] | hits |  |
| COc1ccc2c(c1)c(C1=C(c3c[nH]c4ccccc34)C(=O)NC1=O)cn2CCCN(C)C [Gö 6983] |  | percentage of Pdx1+ cells, PKC antagonists in the presence of ILV ([1]; HUES8-derived population): 0.8±0.2%; suppression of PKCμ kinase activity [3]: not effective |
| COc1cccc(-c2cc(=O)c3ccccc3o2)c1N [PD098059] |  | percentage of Pdx1+ cells, MEK/ERK inhibitors together with ILV ([1]; 300 nM ILV plus 50 μM PD098059 or 10 μM U0126, 4 days): 0.4±0.2% |
| CCCCCCCCCCCCCC(=O)O[C@@H]1[C@@H](C)[C@@]2(O)[C@@H](C=C(CO)C[C@]3(O)C(=O)C(C)=C[C@@H]23)[C@@H]2C(C)(C)[C@]12OC(C)=O [PMA, phorbol-12-myristate-13-acetate] |  | percentage of Pdx1+ cells, PKC agonists in the absence of ILV ([1]; 4 days): 21.3±4.0% |
| CC(C)[C@H]1C(=O)N[C@H](CO)Cc2cc(NC(=O)/C=C/C=C/c3ccc(C(F)(F)F)cc3)ccc2N1C [TPB, (2S,5S)-(E,E)-8-(5-(4-(trifluoromethyl)phenyl)-2,4-pentadienoylamino)benzolactam] |  | percentage of Pdx1+ cells, PKC agonists in the absence of ILV ([1]; 4 days): 15.4±2.9% |
| trimeprazine tartrate [Compound VIII] | hits |  |
| B1 |  | percentage of cells stained by Pdx1 antibody ([1]; HUES8-derived population, 4 days, 300 nM ILV and/or 50 ng/ml FGF10): 5.7±2.3% |
